Drawing on patent US10611778B2, “Fused bicyclic inhibitors of menin-MLL interaction” (Janssen Pharmaceutica NV, priority 2016, dated 2020), this text covers melting point and IC50 for twelve molecules.

Where a name gives a salt, the structure may show the parent alone. A value given as a limit tells only on which side of the number the result lay.

The target of data set [1] is T1, Menin/MLL (terbium chelate-labeled menin, FITC-MBM1 peptide) (Homo sapiens, UniProt O00255, T541A).
T1 construct: Menin (a.a. 1-610-6×his tag) was labeled with terbium cryptate as follows
T1 sequence (O00255 with tags, fused parts or gaps T541A): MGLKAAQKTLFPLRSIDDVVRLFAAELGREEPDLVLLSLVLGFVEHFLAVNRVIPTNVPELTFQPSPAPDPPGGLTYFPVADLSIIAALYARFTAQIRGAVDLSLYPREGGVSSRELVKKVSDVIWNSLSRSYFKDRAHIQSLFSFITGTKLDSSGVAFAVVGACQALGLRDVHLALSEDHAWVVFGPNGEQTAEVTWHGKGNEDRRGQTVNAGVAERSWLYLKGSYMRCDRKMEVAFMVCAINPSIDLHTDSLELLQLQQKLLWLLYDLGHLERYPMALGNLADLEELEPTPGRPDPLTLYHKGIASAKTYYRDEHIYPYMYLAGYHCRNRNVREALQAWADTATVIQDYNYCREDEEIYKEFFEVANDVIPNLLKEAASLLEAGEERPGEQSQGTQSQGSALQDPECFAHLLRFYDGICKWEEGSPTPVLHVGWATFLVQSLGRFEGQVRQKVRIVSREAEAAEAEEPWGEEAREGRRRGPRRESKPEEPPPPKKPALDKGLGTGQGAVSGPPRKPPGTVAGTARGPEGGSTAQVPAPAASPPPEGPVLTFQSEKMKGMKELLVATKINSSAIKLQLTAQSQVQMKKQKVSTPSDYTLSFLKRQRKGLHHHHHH
The data set is described as follows: Menin/MLL homogenous time-resolved fluorescence (HTRF) assay. Type of data set: binding. The following applies: averaged values over all measurements; read-out: Menin HTRF assay (IC50). In outline:
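Compound preincubated 5 min with terbium-cryptate-labeled menin (aa 1-610, His-tagged; 100 pM final), then 75 nM FITC-MBM1 peptide added, 15 min at ambient temperature; 0.5% DMSO, Tris pH 7.5 buffer. HTRF ratio 520/490 nm; % inhibition vs saturating competitor, IC50 from 11-point three-fold titration from 31 μM.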
In general terms: Time-resolved FRET reads energy transfer from a long-lived donor to a nearby acceptor.

The test system of another data set is MOLM14. The data set is described as follows: Proliferation assay (spheroid assay) MOLM14. The following applies: Homo sapiens, MOLM-14, MOLM14; averaged values over all measurements; read-out: Spheroid assay MOLM14 (IC50). Type of data set: cell-based, human. The method, boiled down:
(§1)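 Cells were grown as spheroids in ultra-low attachment round-bottom wells with compound (0.3% DMSO) for 8 d at 37 °C, imaged every 4 h, with confluence as spheroid size. AUC of confluence versus time (t=0 baseline) was expressed as % of DMSO control, and absolute IC50 came from a least-squares nonlinear fit.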

The next data set relates to KG1. The data set is described as follows: Proliferation assay (spheroid assay) KG1 control cell line. Type of data set: cell-based. To be noted: Homo sapiens, KG-1, averaged values over all measurements. The procedure:
(§2) The anti-proliferative effect of menin/MLL protein/protein interaction inhibitor test compounds was assessed in human leukemia cell lines. The cell lines MV-4-11 and MOLM14 harbor MLL translocations and express the MLL fusion proteins MLL-AF4 and MLL-AF9, respectively, as well as the wildtype protein from the second allele. […] K562 and KG1 were used as a control cell lines containing two MLL wildtype alleles in order to exclude compounds that display general cytotoxic effects.
(§3) MV-4-11 and MOLM14 were cultured in RPMI-1640 (Sigma Aldrich) supplemented with 10% fetal bovine serum (HyClone), 2 mM L-glutamine (Sigma Aldrich) and 50 μg/ml gentamycin (Gibco). K562 were propagated in RPMI-1640 (Sigma Aldrich) supplemented with 20% fetal bovine serum (HyClone), 2 mM L-glutamine (Sigma Aldrich) and 50 μg/ml gentamycin (Gibco). KG1 were cultured in Iscove's MDM (Gibco) supplemented with 20% fetal bovine serum (HyClone), 2 mM L-glutamine (Sigma Aldrich) and 50 μg/ml gentamycin (Gibco).
(§4) In order to assess the anti-proliferative effects, 1,500 MV-4-11, 300 MOLM14, 750 K562 or 1,300 KG1 cells were seeded in 200 μl media per well in 96-well round bottom, ultra-low attachment plates (Costar, catalogue number 7007). Cell seeding numbers were chosen based on growth curves to ensure linear growth throughout the experiment. Test compounds were added at different concentrations and the DMSO content was normalized to 0.3%. Cells were incubated for 8 d at 37° C. and 5% CO2. Spheroid like growth was monitored in real-time by live-cell imaging (IncuCyteZOOM, Essenbio, 4× objective) acquiring one image every four hours for 8 d. Confluence (%) as a measure of spheroid size was determined using an integrated analysis tool.
(§5) In order to determine the cumulative effect of the test compounds over time, the area under the curve (AUC) in a plot of confluence against time was calculated. Confluence at the beginning of the experiment (t=0) was used as baseline for the AUC calculation.
(§6) Absolute IC50 values were calculated according to the following procedure: % Control=(AUC sample/AUC control)*100
(§7) AUC control=mean AUC of control values (cells without compound/DMSO as vehicle control)
(§8) A non-linear curve fit was applied using the least squares (ordinary) fit method to the plot of % control versus compound concentration. Based on this, the absolute IC50 value (half maximal inhibitory concentration of the test compound causing an anti-proliferative effect of 50% relative to the vehicle control) was calculated.

For a further data set, the system named is K562. The data set is described as follows: Proliferation assay (spheroid assay) K562 control cell line. Type of data set: cell-based. The following applies: Homo sapiens; K562 control cell line; averaged values over all measurements; read-out: Spheroid assay K562 (IC50). The method, then: as §2, §3, §4, §5, §6, §7, §8
In the next data set the test system is MV-4-11. Nature of the data set: Proliferation assay (spheroid assay) MV-4-11. Type of data set: cell-based, human. To be noted: Homo sapiens, MV4-11, MV-4-11; averaged values over all measurements; read-out: Spheroid assay MV-4-11 (IC50). The method, boiled down:
as §1

Turning to `O=S(=O)(c1ccccc1)N1CC[C@@H]2CN(c3ncnc4sc(CC(F)(F)F)cc34)CC[C@@H]21` (as salt: HCl) (hydrate or solvate) [Compound 16], the melting point – broadly, the temperature, or range, at which the solid turns liquid – was 152 °C.

The molecule `FC(F)(F)Cc1cc2c(N3CCC4C(CCN4Cc4ncc[nH]4)C3)ncnc2s1` (stereo not shown) (as salt: HCl) [Compound 22] yielded a melting point of 140 °C.

In turn, `CC(C)CN1CCC2CN(c3ncnc4sc(CC(F)(F)F)cc34)CCC21` (stereo not shown) (as salt: HCl) [Compound 25] showed a melting point of 140 °C.

In turn, `FC(F)(F)Cc1cc2c(N3C[C@@H]4CCN(Cc5ccccc5)C[C@@H]43)ncnc2s1` (single isomer, unassigned) [Compound 30] gave a melting point of 140 °C. The concentration for half-maximal inhibition (IC50) (in general, the midpoint of a concentration-inhibition curve) in data set [1] is around 1.26 µM.

Molecule `FC(F)(F)Cc1cc2c(N3C[C@H]4CCN(Cc5ccccc5)C[C@H]43)ncnc2s1` (single isomer, unassigned) [Compound 31] gave a melting point of 150 °C. For the same molecule, the half-maximal inhibitory concentration (IC50) in data set [1] worked out at 1.08 µM.

Take `CC(C)CN1CC[C@@H]2CN(c3ncnc4sc(CC(F)(F)F)cc34)C[C@@H]2C1` (single isomer, unassigned) [Compound 36]: the IC50 in the data set on MOLM14 is 1.4 µM; in data set [1], 0.015 µM; in the data set on KG1, above 15 µM; with K562 it was above 15 µM; in the data set on MV-4-11, 0.22 µM.

`CC(C)CN1CC[C@H]2CN(c3ncnc4sc(CC(F)(F)F)cc34)C[C@H]2C1` (single isomer, unassigned) [Compound 69]: the melting point amounted to 109 °C. In addition, in data set [1], the IC50 was 0.057 µM. Further, the IC50 with MV-4-11 was 1.8 µM.

Turning to `FC(F)(F)Cc1cc2c(N3C[C@H]4CCN(CC5CCOCC5)C[C@H]4C3)ncnc2s1` (single isomer, unassigned) [Compound 70], the melting point came to 160 °C. In the data set on MOLM14, the 50% inhibitory concentration (IC50) was 1.4 µM. For the same molecule, the IC50 in data set [1] worked out at 0.018 µM. In the data set with KG1, this molecule had a half-inhibitory concentration (IC50) above 15 µM. For the same molecule, the IC50 in the data set on K562 is above 15 µM. In the data set with MV-4-11, the 50% inhibitory concentration (IC50) was determined as 0.56 µM.

Take `Cn1cc(CN2CC[C@H]3CN(c4ncnc5sc(CC(F)(F)F)cc45)C[C@H]3C2)cn1` (single isomer, unassigned) [Compound 71B]: the 50% inhibitory concentration (IC50) is 2.2 µM in the data set with MOLM14; 0.054 µM in data set [1]; above 15 µM in the data set on KG1; above 15 µM in the data set on K562; 0.42 µM with MV-4-11.

In turn, `O=C([C@@H]1CC2(CC2)CN1)N1CC[C@@H]2CN(c3ncnc4sc(CC(F)(F)F)cc34)C[C@@H]2C1` (single isomer, unassigned) [Compound 81] showed a melting point of 112 °C. The half-maximal inhibitory concentration (IC50) in data set [1] was found to be 0.41 µM. Besides, the half-inhibitory concentration (IC50) with MV-4-11 was determined as 5.7 µM.

In turn, `O=C([C@@H]1CC2(CC2)CN1)N1CC[C@H]2CN(c3ncnc4sc(CC(F)(F)F)cc34)C[C@H]2C1` (single isomer, unassigned) [Compound 82] registered a melting point of 105 °C. Further, in data set [1], the 50% inhibitory concentration (IC50) turned out to be 0.653 µM. Besides, the half-inhibitory concentration (IC50) with MV-4-11 is 7.9 µM.

For the molecule `FC(F)(F)Cc1cc2c(N3C[C@@H]4CN(Cc5ccccc5)C[C@@H]43)ncnc2s1` [Compound 29], the melting point stood at 134 °C. Moreover, the half-maximal inhibitory concentration (IC50) in data set [1] came out at 3.45 µM.
